8 substances from ChEMBL document CHEMBL1128489, “Novel hexakis(areneisonitrile)technetium(I) complexes as radioligands targeted to the multidrug resistance P-glycoprotein” (J Med Chem, 1995) can be followed below.

The test system of assay [1] is V79. The assay can be described thus: Net accumulation of the [99mTc]Isonitrile complex was measured in 77A cell lines in the presence of Verapamil. The note with it: Cricetulus griseus. Type of assay: functional, cell-based.
For assay [2], the system named is V79. Nature of the assay: Verapamil index represents the ratio of net uptake in the presense of verapamil over control in 77A cell lines. Type of assay: functional, cell-based. Particulars: Cricetulus griseus.
The subject of assay [3] is V79. Nature of the assay: Verapamil index represents the ratio of net uptake in the presense of verapamil over control in V79 cell lines. Type of assay: functional, cell-based. The note with it: Cricetulus griseus.
The test system of assay [4] is V79. Nature of the assay: Net accumulation of the [99mTc]Isonitrile complex was measured in V79 cell lines in the presence of Verapamil. Type of assay: functional, cell-based. Particulars: Cricetulus griseus.
A short description of assay [5]: Ratio of bioavailability in rat blood and rat brain. The assay is classed as functional, organism-based.
The nature of assay [6]: Ratio of bioavailability in rat heart and rat blood. The assay is classed as functional, organism-based.
A short description of assay [7]: Ratio of bioavailability in rat adrenal and rat blood. Type of assay: functional, organism-based.

With “Hexakis-(2-methoxyisobutylisonitrile)Technetium (99mTc-MIBI)”, the Net accumulation in the assay with V79 [1] is 102; in the assay on V79 [4], 70.4. Further, the Verapamil index was determined as 32.9 with V79 [2] and 3.91 in the assay with V79 [3]. In addition, the Ratio in assay [5] was 0.7; in assay [6], 120; in assay [7], 158.

As to “Hexakis[2-Methoxy-5-nitrobenzeneisonitrile]technetium Complex”, the Verapamil index with V79 [3] turned out to be 0.96. Further, in the assay on V79 [4], the Net accumulation turned out to be 58.3. In addition, the values for the Ratio in assay [5], in assay [6] and in assay [7] were 38, 0.5 and 0.9, respectively.

Regarding “Hexakis[3,4-(Methylenedioxy)-alpha-tolueneisonitrile]technetium Complex”, the Verapamil index in the assay with V79 [3] was determined as 1.11. For the same substance, the Net accumulation in the assay with V79 [4] came out at 287. For the same substance, the Ratio amounted to 36 in assay [5], 0.6 in assay [6] and 6.9 in assay [7].

For the substance “Hexakis[3-(hydroxymethyl)benzeneisonitrile]technetium Complex”, the Verapamil index in the assay with V79 [3] turned out to be 2.38. The Net accumulation in the assay with V79 [4] is 257. The Ratio was 27 in assay [5], 0.7 in assay [6] and 6.2 in assay [7].

For the substance “Hexakis[3-Nitrobenzeneisonitrile]technetium Complex”, the Verapamil index with V79 [3] amounted to 0.99. The Net accumulation in the assay on V79 [4] came out at 14. The Ratio turned out to be 31 in assay [5], 0.4 in assay [6] and 0.6 in assay [7].

As to “Hexakis[4-Methoxy-alpha-tolueneisonitrile]technetium Complex”, the Net accumulation in the assay on V79 [1] is 359. In addition, the Verapamil index in the assay on V79 [2] was determined as 2.6. Moreover, the Ratio in assay [5] came to 30; in assay [6], 0.3; in assay [7], 2.5.

“Hexakis[4-Nitrobenzeneisonitrile]technetium Complex”: the Net accumulation in the assay with V79 [1] stood at 29.1. For the same substance, the Verapamil index in the assay with V79 [2] stood at 1.15. The Ratio in assay [5] came out at 39; in assay [6], 0.3; in assay [7] it was 0.6.

Consider “Hexakis[5-Methoxy-2-methyl-4-nitrobenzeneisonitrile]technetium Complex”, for which the Verapamil index with V79 [3] turned out to be 0.87. Besides, the Net accumulation in the assay with V79 [4] turned out to be 31.7. Moreover, the figures for the Ratio in assay [5], in assay [6] and in assay [7] were 28, 0.4 and 1.8, respectively.
